We go through 13 compounds from PubChem BioAssay (NCI).

Among the test systems are UACC-62 melanoma; PC-3 prostate; OVCAR-8 ovarian; UO-31 renal; NCI-H460 lung; MDA-MB-231 breast; HCT-116 colon; U251 CNS; IGROV1 ovarian; MDA-N.
Assay in all cases: NCI anticancer screen, dose series, 48 h

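Method: 48-hour compound exposure of cells in 96-well plates, five concentrations, linear interpolation of endpoints. GI50 marks 50% less growth. TGI is the concentration that stops growth completely.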

Consider `Cc1cc(OCCOCCC(F)(F)P(=O)(O)O)ccc1CCc1cnc2c(N)nc3cc(CCC(=O)O)ccc3c2c1`, for which the GI50 in the assay on UACC-62 melanoma, with PC-3 prostate, with OVCAR-8 ovarian, in the assay on UO-31 renal, with NCI-H460 lung and in the assay on MDA-MB-231 breast was over 100 µM in each case. For the same compound, the GI50 in the assay with HCT-116 colon, in the assay with U251 CNS and in the assay with IGROV1 ovarian was over 100 µM throughout. Besides, the TGI in the assay on UACC-62 melanoma, with PC-3 prostate, with OVCAR-8 ovarian, in the assay on UO-31 renal, in the assay with NCI-H460 lung and with MDA-MB-231 breast was over 100 µM each time. The TGI in the assay with HCT-116 colon, in the assay with U251 CNS and in the assay with IGROV1 ovarian was over 100 µM throughout.

In the case of `NC(=O)CC(N)C(=O)NC(Cc1ccccc1)C(=O)NC(Cc1ccccc1)NC(=O)C(Cc1c[nH]c2ccccc12)C(=O)O` (stereo unspecified), the TGI with UACC-62 melanoma, with PC-3 prostate, in the assay on OVCAR-8 ovarian, in the assay on UO-31 renal, with NCI-H460 lung and in the assay on MDA-MB-231 breast was over 100 µM in each case. The TGI in the assay on HCT-116 colon, in the assay with U251 CNS and in the assay with IGROV1 ovarian was over 100 µM each time.

As to `CCSc1nc(=S)n(-c2ccccc2)c(C)c1C(C)=O`, the TGI with UACC-62 melanoma, in the assay with PC-3 prostate, with OVCAR-8 ovarian, in the assay with UO-31 renal, in the assay with NCI-H460 lung and in the assay with MDA-MB-231 breast was over 100 µM throughout. Further, the TGI with HCT-116 colon, with U251 CNS and in the assay on IGROV1 ovarian was over 100 µM in each case.

As for `S=c1nc(N/N=C/c2cccs2)c2cn[nH]c2[nH]1`, the TGI in the assay on UACC-62 melanoma is over 100 µM; with PC-3 prostate it was 37.5 µM; in the assay with OVCAR-8 ovarian it was over 100 µM; with UO-31 renal it was over 100 µM; in the assay on NCI-H460 lung it was 13.1 µM; in the assay on MDA-MB-231 breast, over 100 µM. Besides, the TGI in the assay with HCT-116 colon was over 100 µM; with U251 CNS, 77.6 µM; in the assay on IGROV1 ovarian, 75.1 µM.

`CCCCCCCCCCCCCC[n+]1ccc(C(N)=O)cc1`: the GI50 in the assay on UACC-62 melanoma was 1.9 µM; with PC-3 prostate it was 0.703 µM; in the assay on OVCAR-8 ovarian, 1.68 µM; in the assay on UO-31 renal, 7.65 µM; in the assay with NCI-H460 lung it was 2.58 µM; in the assay on MDA-MB-231 breast it was 1.85 µM. For the same compound, the GI50 in the assay with U251 CNS is 0.538 µM; with IGROV1 ovarian, 1.05 µM. Moreover, the TGI is 4.65 µM in the assay on UACC-62 melanoma; 2.88 µM with PC-3 prostate; 4.48 µM with OVCAR-8 ovarian; 24.3 µM in the assay with UO-31 renal; 8.18 µM in the assay with NCI-H460 lung; 4.6 µM with MDA-MB-231 breast. The TGI is 1.87 µM with U251 CNS and 2.91 µM with IGROV1 ovarian.

`O=c1[nH]c2nccn2c2c1SCCN2`: the TGI in the assay with UACC-62 melanoma, in the assay with PC-3 prostate, with OVCAR-8 ovarian, in the assay with NCI-H460 lung, with HCT-116 colon and in the assay with U251 CNS was over 100 µM throughout. Also, the TGI in the assay with IGROV1 ovarian and with MDA-N was over 100 µM throughout.

As for `O=[N+]([O-])/C=C(\CS(=O)(=O)c1ccccc1)c1ccc2c(c1)OCO2`, the TGI in the assay on UACC-62 melanoma was over 100 µM; with OVCAR-8 ovarian it was over 100 µM; in the assay with UO-31 renal, 98.7 µM; in the assay on MDA-MB-231 breast, 64.1 µM; in the assay on HCT-116 colon it was over 100 µM; in the assay on U251 CNS, over 100 µM. For the same compound, the TGI in the assay with IGROV1 ovarian and in the assay on MDA-N was over 100 µM throughout.

Turning to `CCCOP(=O)(OCCC)OC(C(F)(F)F)C(F)(F)F`, the TGI in the assay with UACC-62 melanoma, in the assay with UO-31 renal, in the assay with NCI-H460 lung, in the assay on MDA-MB-231 breast, with HCT-116 colon and in the assay on U251 CNS was over 100 µM throughout. The TGI in the assay on MDA-N was over 100 µM.

`Cc1ccc(-c2cc[n+]3c(n2)oc2ccccc23)cc1`: the TGI in the assay on UACC-62 melanoma is 97.7 µM; in the assay on OVCAR-8 ovarian, 41.2 µM; in the assay with UO-31 renal, over 100 µM; with NCI-H460 lung, over 100 µM; in the assay with MDA-MB-231 breast, over 100 µM; in the assay with HCT-116 colon, over 100 µM. The TGI with U251 CNS, with IGROV1 ovarian and in the assay with MDA-N was over 100 µM in each case.

Take `Cc1cc2c(cc1C)C(=O)C1(C2)Cc2cc3c(cc2C1=O)CCC3` (stereo unspecified): the TGI in the assay on UACC-62 melanoma, in the assay with PC-3 prostate, in the assay with OVCAR-8 ovarian, in the assay with UO-31 renal, in the assay with NCI-H460 lung and with HCT-116 colon was over 100 µM each time. In addition, the TGI in the assay on U251 CNS, in the assay with IGROV1 ovarian and with MDA-N was over 100 µM each time.

In the case of `O=c1[nH]nc(Cc2ccccc2)n1/N=C/c1cccnc1`, the TGI with PC-3 prostate, with OVCAR-8 ovarian, in the assay on UO-31 renal, with NCI-H460 lung, in the assay with MDA-MB-231 breast and in the assay on HCT-116 colon was over 100 µM each time. Further, the TGI in the assay on U251 CNS, with IGROV1 ovarian and in the assay with MDA-N was over 100 µM each time.

For the compound `COc1cc(C2C3=C(CCCC3=O)N(c3ccc(C)cc3)C3=C2C(=O)CCC3)c([N+](=O)[O-])cc1OC`, the TGI in the assay on UACC-62 melanoma, with PC-3 prostate, in the assay on UO-31 renal, in the assay on NCI-H460 lung, in the assay with U251 CNS and with IGROV1 ovarian was over 100 µM in each case.

As for `O=C(c1cccnc1)N1N=C(c2ccccc2)CC1(O)c1cc(F)c(Cl)cc1Cl` (stereo unspecified), the TGI in the assay on PC-3 prostate was 72.2 µM; with OVCAR-8 ovarian it was over 100 µM; with UO-31 renal, over 100 µM; in the assay on NCI-H460 lung, 44.7 µM; with MDA-MB-231 breast it was 35.4 µM; in the assay on HCT-116 colon it was 30.6 µM. Moreover, the TGI in the assay with U251 CNS is 32.4 µM; in the assay on IGROV1 ovarian, 59.9 µM; in the assay with MDA-N, over 100 µM.
